Reference: US20230266302A1, “SYNTHESIS AND USE OF N-BENZYL SULFONAMIDES” (THE UNIVERSITY OF TULSA, priority 2020, published 2023)

What was measured:
Assay in all cases: Cytotoxicity testing, CellTiter-Blue assay (FIG. 9)
Type in all cases: cell-based
Conditions in all cases: 100 μM, 24 hour compound incubation, result in words
NCI-H196 (lung cancer) = system: NCI-H196 (lung cancer)
Description: (§1) The cytotoxicity tests were carried out in the following manner. Living cells are known to convert resazurin to the fluorescent compound resorufin. Test systems which rely upon this reaction are commercially available. One such test is known at the Cell Titer Blue Cell Viability test assay from Promega. Cell cultures for each of the identified cancer lines were obtained from ATCC and maintained in Dulbecco's Modified Eagle Medium (DMEM) supplemented with 10% fetal bovine serum (FBS) and pen/strep. As known to those skilled in the art, DMEM typically includes the components identified below.
(§2) The test method provides for incubating the cell cultures at 37° C. Additionally, the cell cultures are kept under an atmosphere containing 5% CO2. After allowing for proliferation of the cells, the cells were distributed across a plurality of test cells containing from 100 μL DMEM plus 10% FBS and allowed to attach to the surface of the cells. Typically, the time for attachment will require about 12 hours to about 18 hours. Following attachment, the cells were treated with either a solvent control or the N-benzyl sulfonamide compound of interest dissolved in a suitable solvent such as but not limited to DMSO. Typically, about 18 hours to about 36 hours are required to determine the effect of the N-benzyl sulfonamide compound of interest on cell viability. Following treatment of the cells with the N-benzyl sulfonamide or control, the toxicity of the compound to the cells will be determined by addition of 10 μl of CellTiter-Blue reagent, i.e. resazurin. Typically, the resazurin is added between about 18 hours to about 36 hours after treating the cells with the N-benzyl sulfonamides or the control. The cells are allowed to consume and convert the resazurin to resorufin for about one to four hours. Subsequently, the fluorescence of […] is measured by excitation at 560 nm and recording the emission at 590 nm within an instrument configured to measure fluorescence intensity. Two commercially available systems are the BioTek Cytation 5 plate reader and the Promega Glomax Multi+detection system. […] The method for determining IC50 values is well known in the art and will not be discussed further. As known to those skilled in the art, IC50 is a quantitative measure that indicates how much of a particular inhibitory substance (e.g. drug) is needed to inhibit, in vitro, a given biological process or biological component by 50%. Therefore, each N-benzyl sulfonamide will be tested over a range of concentrations. Typically, the concentration ranges will be: 6.25 μM, 12.5 μM, 25 μM, 50 μM, and 100 μM. The control in this method is normally dimethyl […] (DMSO) or other solvent suitable for dissolving the compounds to be tested. FIG. 8 depicts the % cell viability for the indicated compounds depicted in FIG. 7.
(§3) The Table of FIG. 9 provides the results of cytotoxicity testing a 100 μM concentration of compounds 2, 5-9, 11-12, 14, 16, 18-22 of FIG. 7 against the indicated cancer cell lines using CellTiter-Blue assay with 24 hour compound incubation time. FIG. 9 reflects the percent reduction in cell viability resulting from the treatment of the indicated cancer cell lines with the indicated compounds. As indicated by the boxed values in FIG. 9, compounds 2, 5, and 6 would be considered effective against H293. […] The Table of FIG. 10 provides a comparison of the IC50 values of select compounds from FIG. 7 to the IC50 values of two known anti-cancer sulfonamides, ABT-751 and Indisulam. As indicated by FIG. 10, the identified compounds performed remarkably better than the known anti-cancer agents. Thus, the identified compounds are expected to have greater anti-cancer potency.

HeLa (cervical cancer) = system: HeLa (cervical cancer)
Description: as §1, §2, §3

[1] = system: MCF10A (non-cancerous breast)
Description: as §1, §2, §3

Cc1ccc(S(=O)(=O)NCc2c[nH]c3cccc(Br)c23)cc1 [Compound 5, N-[(4-bromo-1H-indol-3-yl)methyl]-4-methylbenzenesulfonamide]
displayed effectiveness: percent reduction in cell viability, NCI-H196 (NCI-H196 (lung cancer)) | percent reduction in cell viability, HeLa (HeLa (cervical cancer)) | percent reduction in cell viability, MCF10A [1]
